Values after ≈ are worked out from the molar mass of the structure shown.
What was measured:
[1] = tested on: biomarkers such as uncoupling protein 1 (UCP1), PGC-1α in iWAT (Inguinal white adipose tissue); test: Biomarker expression in iWAT after localized microinjections of the injection formulations; assay type: in vivo, C57BL/6 mice; conditions: dose up to 1 mg per animal; single and multiple localized microinjections in iWAT; indicates marked thermogenesis
Method: In certain non-limiting embodiments, the injection formulations were evaluated to determine the effect of mirabegron in animals (such as C57BL/6 mice etc.). The purpose of this study was to determine the effect of mirabegron on modulation in biomarkers such as uncoupling protein 1 (UCP1), Peroxisome proliferator-activated receptor-gamma coactivator-1alpha (PGC-1α) and others in this category to check pharmacokinetics after single and multiple localized microinjections in iWAT (Inguinal white adipose tissue). […]

[2] = Solubility of the API in various solvent systems (saturation solubility studies); assay type: physicochemical
Source text: In developing the parenteral formulation of mirabegron, the present inventors conducted extensive research and experiments. The solubility of API was studied in various solvent systems. For formulating immediate release injectable formulations, the solubility of the drug plays an important role as the final parenteral formulation has to be essentially a clear solution. […] Further, the inventors of the present invention were able to achieve maximum API solubility based on series of saturation solubility studies performed. […] The assessment of the successful development and stability of the solutions has been made on basis of the appearance of the solutions, the pH-value, osmolality, impurities content, and stability. The prepared formulations were found acceptable on these parameters.

[3] = background statement; cited from earlier work

Nc1nc(CC(=O)Nc2ccc(CCNC[C@H](O)c3ccccc3)cc2)cs1 [Mirabegron, (R)-2-(2-aminothiazol-4-yl)-4′-{2-[(2-hydroxy-2 phenylethyl)amino]ethyl}acetanilide]
Expression of biomarkers in iWAT [1]: statistically significant increase
Solubility of API in Acetate buffer ([2]; Acetate buffer having pH 4.5, saturation solubility studies): maximum solubility
Drug solubility with co-solvent ([2]; co-solvent (such as propylene glycol) with or without heating): failed to achieve desired drug solubility
Solubility of API when pH is adjusted to the acidic side ([2]; pH close to 3.0): soluble
solubility ([2]; solution with pH adjusted to the acidic side, pH 3, aqueous buffer, after pH adjusted to the acidic side): ≤ 100000 µg/mL
Solubility of API in water ([2]; water): practically insoluble
solubility ([2]; water, starting value, before pH adjustment): ~100 µg/mL (≈ 252 µM)
Solubility in water [3]: practically insoluble

— US11311518B1, “Parenteral dosage form of β3 adrenoreceptor agonists” (Jubilant Pharma Holdings Inc., priority 2021, dated 2022)
